Reference: patent US20090306093A1, “METHOD FOR TREATING PATIENT HAVING BENIGN PROSTATE HYPERPLASIA” (KAOHSIUNG MEDICAL UNIVERSITY, priority 2008, published 2009)

Columns and labels:
[1] = molecular target: T1, a1A-adrenoceptor (Rattus norvegicus, UniProt P43140); test: [3H]-prazosin competition binding, rat submaxillary gland membranes
T1 construct: The submaxillary glands, spleen, and aorta of rats were separately homogenized; from tissue; host or cells: Wistar rat submaxillary gland membranes
T1 sequence (P43140 1-466): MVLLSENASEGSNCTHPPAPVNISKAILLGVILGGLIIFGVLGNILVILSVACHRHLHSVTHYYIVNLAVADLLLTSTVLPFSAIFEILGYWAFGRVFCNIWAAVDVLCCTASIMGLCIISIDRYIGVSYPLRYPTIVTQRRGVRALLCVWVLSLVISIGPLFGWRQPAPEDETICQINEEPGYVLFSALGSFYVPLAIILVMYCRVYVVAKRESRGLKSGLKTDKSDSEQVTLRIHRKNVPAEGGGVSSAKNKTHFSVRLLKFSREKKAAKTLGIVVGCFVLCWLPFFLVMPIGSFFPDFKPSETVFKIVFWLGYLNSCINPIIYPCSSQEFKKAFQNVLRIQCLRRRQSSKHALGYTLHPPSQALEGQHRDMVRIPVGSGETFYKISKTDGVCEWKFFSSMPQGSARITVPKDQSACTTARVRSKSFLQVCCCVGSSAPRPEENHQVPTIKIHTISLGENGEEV
Procedure: Wistar rats were obtained from National Laboratory Animal Breeding and Research Center (Taipei, Taiwan) and housed under a constant temperature and controlled illumination. The submaxillary glands, spleen, and aorta of rats were separately homogenized for 30 seconds with a Kinematica polytron in 20 volumes of ice-cold TE buffer (10 mM Tris HCl, 1 mM EDTA, 0.1 mM ascorbic acid, pH 7.4). The homogenate was filtered under pressure through muslin and the filtrate was centrifuged at 1,000 g for 10 minutes. The supernatant was centrifuged again at 10,000 g for 12 minutes at 4° C. The second supernatant was centrifuged at 30,000 g for 15 minutes at 4° C., and the final pellet was resuspended in the assay buffer (75 mM Tris HCl, 25 mM MgCl2, pH 7.4). Protein content was determined by Bradford's method.
[^3H]-prazosin, KMUP-1 and membranes (200-300 μg) were incubated for 60 minutes at 25° C. with or without the addition of nonspecific binding agents, in a 75 mM Tris HCl buffer with 25 mM MgCl2, making a final volume of 500 μL. In this experiment, non-specific binding was defined by use of 10 μM phentolamine. In competitive-binding experiments, the competing agent was added directly to the incubation mixture. The incubation was terminated by adding 1 mL of ice cold assay buffer followed by immediate filtration through Whatman GF/C glass fiber filters supported on a 12-port filter manifold (Whatman Int. Ltd, Springfield Mill, Maidstone, UK). The filters were immediately washed 3 times with 5 mL of ice-cold assay buffer and dried in an oven at 60° C. for 2 hours before adding 5 mL of Triton-toluene based scintillation fluid. Membrane-bound radioligand trapped in the filters was counted in a Beckman LS6500 scintillation system (Fullerton, Calif.) with an efficiency of 45%. In each experiment, nonspecifically bound radioligand agents were measured by incubating membrane protein. Specific binding was then obtained by deducting this value from the total binding of radioligand agents for each sample.

[2] = tested on: cAMP; test: Determination of cAMP in rat isolated prostate (radioimmunoassay); conditions: for cAMP levels: 1 hour
Procedure: Isolated prostate strips from Wistar rats were prepared to determine prostate levels of cGMP and cAMP. Briefly, prostate strips were respectively incubated with KMUP-1 (10-100 μM), sildenafil (100 μM), and zaprinast (100 μM) in 10 mL Tyrode solution aerated with 95% O2 and 5% CO2 for 1 hour. To examine the possible mechanisms of action of KMUP-1, the rat prostate was pretreated with ODQ (10 μM, sGC inhibitor) and SQ22536 (9-(tetrahydro-2-furanyl)-9H-purin-6-amine, 10 μM, adenylyl cyclase inhibitor) for 30 minutes before KMUP-1 was added. After the incubation, the prostate tissues were extracted with 1 mL of 0.1 N HCl. The extracts were then lyophilized for a further measurement of cyclic GMP or cyclic AMP of each sample, using commercially available radioimmunoassay kits (Amersham Pharmacia Biotech, Buckinghamshire, England).

## Cn1c(=O)c2c(ncn2CCN2CCN(c3ccccc3Cl)CC2)n(C)c1=O [KMUP-1, 7-[2-[4-(2-Chlorobenzene)piperazinyl]ethyl]-1,3-dimethyl xanthine]
[1]
  Selective Ratio a1A/a1B: 5
  Selective Ratio a1A/a1D: 1
[1]; rat submaxillary glands, [3H]-prazosin, read-out: Receptor Affinity (pKi) a1A (converted)
  Ki: 20.4 nM
[2]; 10 μM
  cAMP levels: 1.74±0.51 pmol mg^−1 protein
[2]; 100 μM
  cAMP levels: 2.82±0.42 pmol mg^−1 protein
[2]; KMUP-1 100 μM in the presence of SQ22536 10 μM
  accumulation of cAMP: 2.16±0.79 pmol mg^−1 protein
